# Data from patent US20250214969A1, “PROTEIN DEGRADERS AND USES THEREOF” (Kymera Therapeutics, Inc., priority 2022, published 2025).
# What was measured:
# [1] = molecular target: T1, truncated His-MBP-Tev-KLHDC2 (residues 1-363) (Homo sapiens, UniProt Q9Y2U9); assay: KLHDC2 HTRF binding assay; details: 1 nM KLHDC2 (residues 1-363), fluorescein-labeled diglycine peptide probe
# T1 construct: truncated His -MBP-Tev-KLHDC2 (residues 1-363) purified from E. coli; made in house; host or cells: E. coli
# T1 sequence (Q9Y2U9 1-363): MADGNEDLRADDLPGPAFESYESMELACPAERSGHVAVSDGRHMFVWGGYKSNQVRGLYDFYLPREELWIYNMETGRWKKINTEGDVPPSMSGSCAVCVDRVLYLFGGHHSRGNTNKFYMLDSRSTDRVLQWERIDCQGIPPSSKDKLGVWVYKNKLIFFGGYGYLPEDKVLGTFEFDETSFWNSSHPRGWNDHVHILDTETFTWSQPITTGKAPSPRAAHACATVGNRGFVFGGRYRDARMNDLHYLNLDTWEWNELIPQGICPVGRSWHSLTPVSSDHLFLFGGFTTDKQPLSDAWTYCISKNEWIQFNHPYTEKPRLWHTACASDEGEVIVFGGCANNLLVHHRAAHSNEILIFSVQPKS
# [2] = molecular target: T1, truncated His-MBP-Tev-KLHDC2 (residues 1-363); assay: KLHDC2 FP competition binding assay; details: 15 nM KLHDC2 (residues 1-363), 10 nM fluorescein-labeled diglycine peptide probe, read-out: KLHDC2 binding Human FP: average external IC50
Structure (SMILES),IC50 [1] [µM],IC50 [2] [µM]
CCOC(=O)Cn1cc(NC(=O)c2cccc(-c3cnccc3CCCCCCN)c2)ccc1=O [I-152],> 5,> 5
O=C(O)Cn1cc(NC(=O)[C@H]2CCCN(c3cccnc3)CC2)ccc1=O [I-28],0.5 to 5,> 5
O=C(O)Cn1cc(N2Cc3cccc(-c4cccnc4)c3C2=O)ccc1=O [I-80],> 5,> 5
O=C(O)CCn1cc(NC(=O)c2cccc(-c3cccnc3)c2)ccc1=O [I-94],> 5,> 5
O=C(O)Cn1cc(NC(=O)c2cccc(-c3nc4ccccc4s3)c2)ccc1=O [I-138],0.05 to 0.5,0.5 to 5
CC(C)(C)OC(=O)NCCCCCCc1cc(C(=O)Nc2ccc(=O)n(CC(=O)O)c2)cc(-c2cccnc2)c1 [I-165],< 0.05,0.05 to 0.5
O=C(O)Cn1cc(NC(=O)[C@H]2Cc3ccccc3N(c3cccnc3)C2)ccc1=O [I-12],> 5,> 5
COc1nc2ccccc2cc1C(=O)Nc1ccc(=O)n(CC(=O)O)c1 [I-186],> 5,> 5
O=C(O)Cn1cc(NC(=O)[C@H]2CN(c3cccnc3)Cc3ccccc32)ccc1=O [I-32],0.5 to 5,> 5
O=C(O)Cn1cc(NC(=O)c2cc(-c3cccnc3)c3ccccc3c2)ccc1=O [I-88],0.5 to 5,0.5 to 5
COc1cncc(N2CCC[C@H](C(=O)Nc3ccc(F)c(CC(=O)O)c3)C2)c1 [I-24],0.05 to 0.5,0.05 to 0.5
O=C(O)Cn1cc(N2CCc3cccc(-c4cccnc4)c3C2=O)ccc1=O [I-74],> 5,> 5
O=C(O)Cn1cc(NC(=O)[C@@H]2CCCN(c3cccnc3)C2)ccc1=O [I-92],0.05 to 0.5,0.5 to 5
COc1cc(-c2nccs2)ccc1C(=O)Nc1ccc(=O)n(CC(=O)O)c1 [I-148],0.5 to 5,0.5 to 5
CC(C)c1cc(=O)n(CC(=O)O)cc1NC(=O)c1cccc(-c2cccnc2)c1 [I-59],0.05 to 0.5,0.5 to 5
CCc1cncc(N2CCC[C@H](C(=O)Nc3ccc(=O)n(CC(=O)O)c3)C2)c1 [I-39],< 0.05,0.05 to 0.5

# More lines, now with the values ahead:
IC50 [1] [µM],IC50 [2] [µM],Structure (SMILES)
> 5,> 5,O=C(O)CN1C(=O)Cc2ccccc21 [I-224]
> 5,> 5,O=C(O)Cn1cc(-c2cccc3[nH]ccc23)ccc1=O [I-339]
> 5,> 5,COc1cccc(C2C(C(=O)O)CC(=O)N2C2CC2)c1 (stereo not shown) [I-218]
> 5,> 5,N#Cc1cccc(OCC(=O)Nc2ccc(=O)n(CC(=O)O)c2)c1 [I-258]
0.5 to 5,0.5 to 5,O=C(O)Cn1cc(NC(=O)c2cccc(-c3cccnc3)c2)ccc1=O [I-281]
> 5,> 5,O=C(O)Cn1cc(NC(=O)COc2cc(Cl)cc(Cl)c2)ccc1=O [I-257]
> 5,> 5,O=C(O)Cn1cc(NC(=O)C2CCCc3cc(O)ccc32)ccc1=O (stereo not shown) [I-245]
> 5,> 5,COc1cccc(-c2cccc(C(=O)Nc3ccc(=O)n(CC(=O)O)c3)c2)c1 [I-292]
> 5,> 5,O=C(O)Cn1cc(-c2cnc(N3CCOCC3)nc2)ccc1=O [I-361]
> 5,> 5,Cc1cc(-c2ccc(=O)n(CC(=O)O)c2)ccc1F [I-376]
> 5,> 5,Cn1ccc2cccc(-c3ccc(=O)n(CC(=O)O)c3)c21 [I-363]
> 5,> 5,O=C(O)C1CC(=O)N(Cc2cccnc2)C1 (stereo not shown) [I-220]
> 5,> 5,Cn1ccc2c(-c3ccc(=O)n(CC(=O)O)c3)cccc21 [I-333]
> 5,> 5,O=C(O)Cn1cc(-c2cccc(OCc3ccccc3)c2)ccc1=O [I-300]
> 5,> 5,COc1ccc(-c2cccc(C)c2)cc1CC(=O)O [I-353]
0.5 to 5,0.5 to 5,O=C(O)Cn1cc(NC(=O)c2cccc(-c3cncnc3)c2)ccc1=O [I-201]
